Data on 22 molecules can be found in patent US20260078130A1, “NAMPT MODULATORS, PREPARATIONS, AND USES THEREOF” (SIRONAX LTD., priority 2022, published 2026).

Where two headings read alike, the source gives them in different places. Where only a bound is given, the exact number is not on record here.

The target of the assay is T1, human enzyme NAMPT (full length) (Homo sapiens, UniProt P43490).
T1 construct: human enzyme NAMPT (full length)
The assay is described as follows: NMN fluorescence biochemical assay (stimulation of NMN synthesis by NAMPT). Conditions: for EC50: concentration giving half-maximal activation, read-out: Enzymatic EC50; for Enzymatic Emax: fold change of maximal activation compared to DMSO. As to the method: Certain compounds described herein were assayed for their ability to stimulate the synthesis of nicotinamide mononucleotide (NMN) by human enzyme NAMPT (full length). The enzymatic assay was performed in a 384-well plate using a TMD buffer (50 mM Tris-HCl, 10 mM MgCl2, 2 mM DTT, pH 7.5). Purified NAMPT (100 nM) was pre-incubated with 0.2 μL. DMSO solution of the test compound (with a series of concentrations) in 10 μL TMD buffer for 15 min at 37° C. The reaction was initiated by adding 10 μL solution of NAM (50 μM), PRPP (100 μM), and ATP (4 mM) in TMD buffer. After 1 h of incubation at 37 T, an aliquot (20 μL) of the NMN-containing sample was sequentially mixed with 5 μL of 20% acetophenone (in DMSO) and 5 μL of 2M KOH. The mixture was placed on ice for 10 min. Next, 22.5 μL of 100% formic acid was added to each sample, vortexed, and then incubated at 37° C. for 20 min. Fluorescence (Ex/Em=382/445 nm) was measured using an Envision plate reader. The potency measurements for the test compounds were quantified and represented as EC50 (concentration of a compound that gives half-maximal activation) and Emax (fold change of a compound's maximal activation compared to DMSO).

Where [1] appears, read: NMN synthesis by purified human NAMPT (100 nM).
[2] abbreviates: NMN fluorescence assay, purified human NAMPT 100 nM.

T1 sequence (P43490 whole entry): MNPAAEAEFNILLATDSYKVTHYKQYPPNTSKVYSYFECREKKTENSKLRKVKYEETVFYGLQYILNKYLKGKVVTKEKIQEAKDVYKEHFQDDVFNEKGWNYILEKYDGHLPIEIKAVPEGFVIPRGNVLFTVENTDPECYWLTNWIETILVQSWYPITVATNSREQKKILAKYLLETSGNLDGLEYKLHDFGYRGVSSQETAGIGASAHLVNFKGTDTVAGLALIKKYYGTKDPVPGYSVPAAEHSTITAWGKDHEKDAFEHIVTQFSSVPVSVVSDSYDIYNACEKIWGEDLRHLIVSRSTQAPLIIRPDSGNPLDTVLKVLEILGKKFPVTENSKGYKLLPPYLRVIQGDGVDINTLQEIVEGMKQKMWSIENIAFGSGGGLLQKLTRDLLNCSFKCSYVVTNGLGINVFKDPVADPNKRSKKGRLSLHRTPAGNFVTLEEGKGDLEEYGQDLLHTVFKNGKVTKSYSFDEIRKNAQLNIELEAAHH

In the case of `O=C1c2ccccc2C(Cc2ccc(F)cn2)N1Cc1ccc2[nH]c(=O)oc2c1` (stereo not shown) [Compound 194, 6-((1-((5-fluoropyridin-2-yl)methyl)-3-oxoisoindolin-2-yl)methyl)benzo[d]oxazol-2(3H)-one], the “Enzymatic Emax” value was “B (3≥B>2)”. Further, the EC50 under setting [1] is 0.5 to 5 µM. On the same counts, the results for `O=C1c2ccccc2C(Cc2cccnc2F)N1Cc1ccc2[nH]c(=O)oc2c1` (stereo not shown) [Compound 183, 6-((1-((2-fluoropyridin-3-yl)methyl)-3-oxoisoindolin-2-yl)methyl)benzo[d]oxazol-2(3H)-one] are “B (3≥B>2)” and 0.5 to 5 µM. Consider `Cn1ncc(Cl)c1CC1c2ccccc2C(=O)N1CC1CC2(C1)OC(=O)NC2=O` (stereo not shown) [Compound 587, 2-((1-((4-chloro-1-methyl-1H-pyrazol-5-yl)methyl)-3-oxoisoindolin-2-yl)methyl)-5-oxa-7-azaspiro[3.4]octane-6,8-dione], for which the “Enzymatic Emax” value was “C (2≥C)”. The concentration giving a half-maximal response (EC50) under setting [2] is at least 5 µM.

Take `NC(=O)c1cccc(CC2c3ccccc3C(=O)N2Cc2ccc3[nH]c(=O)oc3c2)c1` (stereo not shown) [Compound 264, 3-((3-oxo-2-((2-oxo-2,3-dihydrobenzo[d]oxazol-6-yl)methyl)isoindolin-1-yl)methyl) benzamide]: the “Enzymatic Emax” value is “B (3≥B>2)”. Further, under setting [1], the EC50 was in the range of 0.5 to 5 µM. Regarding `Cn1ncc(Cl)c1CC1(C)c2ccccc2C(=O)N1CC1CC2(CNC(=O)O2)C1` (stereo not shown) [Compound 445, 2-((1-((4-chloro-1-methyl-1H-pyrazol-5-yl)methyl)-1-methyl-3-oxoisoindolin-2-yl)methyl)-5-oxa-7-azaspiro[3.4]octan-6-one], the “Enzymatic Emax” value is “B (3≥B>2)”. Moreover, the EC50 under setting [2] is at least 5 µM. With `COC1CN(Cc2ccc3c(c2)[C@H](C)N(Cc2ccc4[nH]c(=O)oc4c2)C3=O)C1` (single isomer, unassigned) [Compound 185], the “Enzymatic Emax” value is reported as “B (3≥B>2)”. For the same molecule, the half-maximal effective concentration (EC50) under setting [1] was at least 5 µM.

Regarding `N#Cc1nccc(Cl)c1CC1c2cccc(F)c2C(=O)N1Cc1ccc2[nH]c(=O)oc2c1` (stereo not shown) [Compound 286, 4-chloro-3-((4-fluoro-3-oxo-2-((2-oxo-2,3-dihydrobenzo[d]oxazol-6-yl)methyl)isoindolin-1-yl)methyl)picolinonitrile], the “Enzymatic Emax” value is recorded as “B (3≥B>2)”. Also, the half-maximal effective concentration (EC50) under setting [1] is below 0.5 µM. As for `O=C1c2ccccc2C(Cc2ncccc2Br)N1Cc1ccc2[nH]c(Cl)nc2c1` (stereo not shown) [Compound 255, 3-((3-bromopyridin-2-yl)methyl)-2-((2-chloro-1H-benzo[d]imidazol-5-yl)methyl) isoindolin-1-one], the “Enzymatic Emax” value is “A (A>3)”. Besides, the EC50 under setting [1] lay within 0.5 to 5 µM. For the molecule `O=C1c2ccccc2C(Cc2ncccc2Br)N1Cc1ccc(O)cc1` (stereo not shown) [Compound 429, 3-((3-bromopyridin-2-yl)methyl)-2-(4-hydroxybenzyl)isoindolin-1-one], the “Enzymatic Emax” value was “C (2≥C)”. The EC50 under setting [2] is below 0.5 µM. As to `CC(C)c1cccnc1CC1c2ccccc2C(=O)N1Cc1ccc2[nH]c(=O)oc2c1` (stereo not shown) [Compound 181, 6-((1-((3-isopropylpyridin-2-yl)methyl)-3-oxoisoindolin-2-yl)methyl)benzo[d]oxazol-2(3H)-one], the “Enzymatic Emax” value was “B (3≥B>2)”. Moreover, the half-maximal effective concentration (EC50) under setting [1] is at least 5 µM. Turning to `Cc1ccnc(C#N)c1CC1c2ccccc2C(=O)N1CC1CCc2[nH]nnc2C1` (stereo not shown) [Compound 454, 4-methyl-3-((3-oxo-2-((4,5,6,7-tetrahydro-1H-benzo[d][1,2,3]triazol-5-yl)methyl)isoindolin-1-yl)methyl)picolinonitrile], the “Enzymatic Emax” value is reported as “C (2≥C)”. In addition, under setting [2], the EC50 was at least 5 µM. As for `COc1cccc(CC2c3ccccc3C(=O)N2Cc2ccc3[nH]c(=O)oc3c2)c1` (stereo not shown) [Compound 180, 6-((1-(3-methoxybenzyl)-3-oxoisoindolin-2-yl)methyl)benzo[d]oxazol-2(3H)-one], the “Enzymatic Emax” value is on record as “B (3≥B>2)”. For the same molecule, under setting [1], the EC50 fell in the range of 0.5 to 5 µM.

As to `Cn1ncc(Cl)c1CC1c2cc(C3CNC3)ccc2C(=O)N1Cc1ccc2[nH]nnc2c1` (stereo not shown) [Compound 383, 2-((1H-benzo[d][1,2,3]triazol-5-yl)methyl)-5-(azetidin-3-yl)-3-((4-chloro-1-methyl-1H-pyrazol-5-yl)methyl)isoindolin-1-one], the “Enzymatic Emax” value is “B (3≥B>2)”. In addition, the EC50 under setting [2] is below 0.5 µM.

Consider `NC(=O)c1cnc(CN2C(=O)c3ccccc3C2Cc2ncccc2Br)s1` (stereo not shown) [Compound 280, 2-((1-((3-bromopyridin-2-yl)methyl)-3-oxoisoindolin-2-yl)methyl)thiazole-5-carboxamide], for which the “Enzymatic Emax” value was “B (3≥B>2)”. The concentration for a half-maximal effect (EC50) under setting [1] is at least 5 µM.

`CN(C)c1ccc2c(c1)C(Cc1c(Cl)cnn1C)N(CC1CC3(CNC(=O)O3)C1)C2=O` (stereo not shown) [Compound 498, 2-((3-((4-chloro-1-methyl-1H-pyrazol-5-yl)methyl)-5-(dimethylamino)-1-oxoisoindolin-2-yl)methyl)-5-oxa-7-azaspiro[3.4]octan-6-one]: the “Enzymatic Emax” value was “B (3≥B>2)”. Also, under setting [2], the 50% effective concentration (EC50) was below 0.5 µM. Regarding `Cn1ncc(Cl)c1CC1c2ccccc2C(=O)N1Cc1ccc2[nH]c(=S)oc2c1` (stereo not shown) [Compound 626, 3-((4-chloro-1-methyl-1H-pyrazol-5-yl)methyl)-2-((2-thioxo-2,3-dihydrobenzo[d]oxazol-6-yl)methyl)isoindolin-1-one], under setting [2], the EC50 was at least 5 µM. As for `Cn1ncc(Cl)c1CC1c2ccccc2C(=O)N1C[C@]1(F)C[C@]2(CNC(=O)O2)C1` (stereo partly shown) [Compound 507, (2s,4s)-2-((1-((4-chloro-1-methyl-1H-pyrazol-5-yl)methyl)-3-oxoisoindolin-2-yl)methyl)-2-fluoro-5-oxa-7-azaspiro[3.4]octan-6-one], the “Enzymatic Emax” value was “B (3≥B>2)”. Also, the half-maximal effective concentration (EC50) under setting [2] was at least 5 µM. For the molecule `O=C1c2ccccc2C(Cc2ncccc2Br)N1Cc1cc[nH]c(=O)c1` (stereo not shown) [Compound 266, 3-((3-bromopyridin-2-yl)methyl)-2-((2-oxo-1,2-dihydropyridin-4-yl)methyl)isoindolin-1-one], the “Enzymatic Emax” value is “A (A>3)”. Also, under setting [1], the EC50 was at least 5 µM.

Turning to `CN(C)c1ccc2c(c1)C(=O)N(Cc1ccc(O)cc1)C2` [Compound 305, 6-(dimethylamino)-2-(4-hydroxybenzyl) isoindolin-1-one], the “Enzymatic Emax” value is recorded as “C (2≥C)”. Moreover, under setting [1], the concentration for a half-maximal effect (EC50) is at least 5 µM.

Consider `O=C1c2ccccc2C(Cc2nn(C(CO)CO)cc2Cl)N1Cc1ccc2[nH]nnc2c1` (stereo not shown) [Compound 363, 2-((1H-benzo[d][1,2,3]triazol-5-yl)methyl)-3-((4-chloro-1-(1,3-dihydroxypropan-2-yl)-1H-pyrazol-3-yl)methyl)isoindolin-1-one], for which the “Enzymatic Emax” value was “B (3≥B>2)”. The half-maximal effective concentration (EC50) under setting [2] lay in the range of 0.5 to 5 µM.

On to `Cc1ccnc(Cl)c1CC1c2ccccc2C(=O)N1Cc1ccc2[nH]c(=O)oc2c1` (stereo not shown) [Compound 263, 6-((1-((2-chloro-4-methylpyridin-3-yl)methyl)-3-oxoisoindolin-2-yl)methyl)benzo[d]oxazol-2(3H)-one], for which the “Enzymatic Emax” value is given as “A (A>3)”. Also, under setting [1], the EC50 is below 0.5 µM. Turning to `Nc1ccccc1CC1c2ccccc2C(=O)N1Cc1ccc2[nH]c(=O)oc2c1` (stereo not shown) [Compound 208, 6-((1-(2-aminobenzyl)-3-oxoisoindolin-2-yl)methyl)benzo[d]oxazol-2(3H)-one], the “Enzymatic Emax” value was “B (3≥B>2)”. Further, the EC50 under setting [1] lay within 0.5 to 5 µM.

As a reminder, the EC50 is the concentration needed to bring the measured effect to its halfway point.
